Measured values reported in US10485772B2, “Compositions for modulating cancer stem cells and uses therefor” (University of Canberra, priority 2014, dated 2019).
Entries after “also recorded” stand apart in the source; their conditions may differ.

Legend:
Format in all cases: cell-based, human
[1] = tested on: CD44^high/CD24^low CSC-like subpopulation of PMA-stimulated MCF-7 cells (MCF-IM model); assay: FACS analysis of CD44high/CD24low CSC-like subpopulation in MCF-IM model; settings: for CD44 high CD24 low-CSC-like subpopulation (CSC formation) by FACS: NCD38 5 μM for 17 hr prior to PMA stimulation for 60 hours
Experimental: (§1) Cells from each well/flask were harvested by means of trypsin treatment followed by two washes with PBS. Washed cells then re-suspended in an antibody cocktail consisting anti-CD44-APC, anti-CD24-PE antibodies (details in Table 5) and Hoechst 33258 dye (final dilution of 1:1000) (Invitrogen, Carlsbad, Calif.) in 1% FCS-PBS solution. Cells re-suspended in antibody cocktail were incubated for 20 minutes at 4° C. Cells were next washed twice with PBS and re-suspended in 1% FCS-PBS solution (volume based on cell number) and kept on ice until analyzed by FACS. Forward scatter (FSC) and side scatter parameters were selected with FITC fluorochrome excited by 488 nm argonion laser, PE fluorochrome excited by 488 nm and Hoechst fluorochrome excited by 350 nm helium-cadmium UV laser.
(§2) Flow Cytometry data was produced using either BD FACS LSR Flow Cytometer (Becton Dickinson Biosciences) or BD FACS Aria™ II Flow Cytometer (Becton Dickinson Biosciences) and analyzed using the data acquisition software CellQuest Pro (Becton Dickinson Biosciences) and FlowJo (Tree Star Inc., Ashland, Oreg.) software at the MCRF facility, JCSMR, ANU, Canberra, Australia. Single colour controls were used to set compensation parameters. Isotype controls were used for all corresponding primary antibodies in each experiment.
The FACS gating strategy used in this thesis is adopted and modified from the pioneer breast cancer stem cell publications (Al-Hajj et al., 2003) which sorted cells based on the CD44^high and CD24^low expression. […] To confirm that anti-CD44-APC and anti-CD24-PE antibodies were specific, isotype control antibodies were used. The isotype (negative controls) used for anti-CD24-PE was PE Mouse-Anti-human IgG2aK and for anti-CD44-APC was APC-Mouse-Anti-human IgG2bK. First, all the cells were stained with Hoechst 33258 to monitor cell viability. In addition cells were stained with varying concentrations of either APC or PE isotypes controls.
(§3) The adherent human mammary adenocarcinoma MCF-7 and MDA-MB-231 cells were cultured in low glucose DMEM (Gibco) and both supplemented with 10% FCS, 2 mM L-glutamine and 0.1% PSN antibiotics. Cells were stimulated with 0.65 ng/ml of phorbol 12-myristate 13-acetate (PMA) (Sigma-Aldrich) or 20 ng/ml of TGF-β (R&D systems) for the times indicated. For Bisindolylmaleimide-I (Calbiochem) or PKC-θ peptide inhibitor (Calbiochem) studies, cells were pre-treated with 1 μM or 30 μM of inhibitor respectively for 1 h prior to stimulation in MCF-7 cells. In case of MDA-MB-231, cells were treated with 4 μM or 30 μM Bisindolylmaleimide-I or PKC-θ peptide inhibitor respectively.
(§4) To separate CSC from non-CSC (NCSC), florescence activated cell sorting (FACS) was performed on single-cell suspensions that were stained with anti-CD44-APC (559942, BD Biosciences) and anti-CD24-PE antibodies (555428, BD Biosciences) along with Hoechst 33258 to monitor cell viability. As used throughout this work, CSC are defined by minority CD44^high/CD24^low, whereas NCSC are defined by rest of the cell populations.
The adherent human mammary adenocarcinoma cell lines MCF-7 were cultured in low glucose DMEM (Gibco) and supplemented with 10% FCS, 2 mM L-glutamine, and 0.1% PSN antibiotics. Cells were stimulated with 0.65 ng/ml of phorbol 12-myristate 13-acetate (PMA) (Sigma-Aldrich) for 60 hours. FACS was performed on single-cell suspensions stained with anti-CD44-APC (559942, BD Biosciences) and anti-CD24-PE antibodies (555428, BD Biosciences), along with Hoechst 33258 (561908, BD Biosciences) to monitor cell viability as previously detailed (Zafar et al., Chromatinized PKC-theta directly regulates inducible genes in epithelial to mesenchymal transition and breast cancer stem cells. Molecular and Cellular Biology, 2014, 34:16 2961-2980). […]

[2] = tested on: MCF-7 cells (mammospheres); assay: Mammosphere assay in MCF-IM model; settings: NCD38 5 μM for 17 hr prior to PMA for 6 days, mammospheres larger than 60 μm counted
Experimental: The following mammosphere culture media components were purchased from StemCell Technologies Inc., BC, Canada: Mammocult Basal medium (Human) (catalogue number-05621), Mammocult Proliferation Supplements (Human) (catalogue number-05622), heparin (catalogue number-07904) and hydrocortisone (catalogue number-[…]). Hydrocortisone powder was freshly dissolved into mammocult basal medium to get 10^−4M solution on the day of experiment. 50 mL of
Mammocult complete media was then prepared by addition of 45 mL Mammocult basal medium, 5 mL mammocult proliferation supplements, 100 μL of the 0.2% heparin stock, 500 μL of 10^−4M stock of hydrocortisone and 50 μL of the PNS. Mammocult complete media was either used on same day or stored for not more than 7 days at 4° C.
MCF-7 cells were grown in a 175 cm^2 cell culture flask and harvested using a cell scraper (Zellschaber, Switzerland) or FACS sorted as specified below. Importantly trypsin treatment was never used for harvesting cells as it interferes with the mammosphere assay. Harvested cells were then re-suspended in 1 mL mammocult complete media and centrifuged at 500×g for 3 minutes at 20° C. The cell pellet was then re-suspended in 1 mL mammocult complete media before counting the cells on the Vi-CELL counter. Cell dilutions were then prepared to stain 40,000 cells/2 mL and 2 mL of cells were seeded in the 6 well-ultra low adherent, flat bottom plates (Costar, Corning Inc, Corning, N.Y., USA). Cells were either stimulated or not treated according to the experimental protocol and incubated at 37° C., under 5% CO2 for 7 days in a Hepa-Filtered Infrared (IR) Incubator (Forma Scientific Inc., Materietta, Ohio). Mammospheres larger than 60 μm were counted per well on day 7 and pictures were taken with an Olympus microscope. All the mammosphere assays were performed in duplicate wells and the entire procedure was repeated at least twice.
Mammosphere culture media components were purchased from StemCell Technologies and mammosphere assays were performed as recommended by the manufacturer's guidelines. Briefly, 40,000 cells/2 ml cell dilutions were then prepared and 2 ml of cells were seeded in the 6 well-ultralow adherent, flat bottom plates (Costar). Mammospheres larger than 60 μm were counted per well on day 7 and pictures were taken.

MDA-MB 231 cells [3] = assay: FACS analysis of CD44high/CD24low CSC-like subpopulation in Basal/metastatic model; settings: NCD38 5 μM
Experimental: as §1, §2, §3, §4

MDA-MB 231 cells [4] = assay: Phase contrast microscopy of EMT/MET in Basal/metastatic model; settings: NCD38 5 μM
Experimental: (§5) Phase contrast microscopy was utilized for EMT and wound healing assays under 10× or 20× magnification of Olympus Fluorescence 1X71 microscope. Images were captured and analyzed as described above except that wound healing assay pictures were also analyzed by Image J software (Free software in Public domain developed by NIH).
as §3
(§6) phase contrast microscopy was performed where cells were viewed at ×4 magnification (wound healing assay) or ×10 magnification (EMT) using an Olympus fluorescence IX71 microscope (Olympus) and images were captured using DPController software (2002 Olympus Optical Co. LTD) and analyzed using Photoshop CS3 (Adobe Systems Inc.). Scans were taken with a 10 μm scale bar.

MCF-7 cells = assay: EMT assay by phase contrast microscopy in MCF-IM model; settings: MCF-7 cells; PMA 20 ng/mL for 60 hr, compared with TNF-α, EGF, IL-6, TGF-β
Experimental: EMT assays were performed in 24-well plates (Costar, Corning Inc., Corning, N.Y., USA). For this assay, usually MCF-7 cells were seeded at 4×10^4/well/500 μL media one day before the experiment unless otherwise specified. Cells were stimulated with various EMT stimuli prepared in warm media the following day and monitored for EMT changes under the microscope specified below. The percentage of EMT was generally calculated based on phenotype counting 100 cells per field under the microscope. All the potential EMT stimuli used herein are described in Table 6 and they were prepared and stored as per supplier specification.
as §5
as §3, with “Cells were stimulated with 0.65 ng/ml of phorbol 12-myristate 13-acetate (PMA) (Sigma-Aldrich) or 20 ng/ml of TGF-β (R&D systems) for the times indicated.” left out
as §6

CC(C)[C@@](C)(O)[C@@H]1CN(c2nc(-c3n[nH]c4ncccc34)c(F)cc2Cl)CCN1 [Compound C27]
inhibition at 0.1 µM ([1]; Homo sapiens, MCF7, MCF-IM model, C27 alone at 100 nM): ~30% | inhibition at 0.5 µM ([1]; Homo sapiens, MCF7, MCF-IM model, C27 alone at 500 nM): ~90%

O=C(N[C@@H](CCNC1CC1c1ccccc1)C(=O)NCc1cccc(Cl)c1)c1ccc(-c2ccccc2)cc1 (some centres unmarked) [NCD-38]
inhibition at 2.5 µM ([1]; Homo sapiens, MCF7, MCF-IM model, NCD-38 alone at 2.5 μM): ~50% | inhibition at 5 µM ([1]; Homo sapiens, MCF7, MCF-IM model, NCD-38 alone at 5 μM): ~60% | CD44 high CD24 low-CSC-like subpopulation (CSC formation) by FACS ([1]; MCF-IM model): inhibition CSC formation | CD44 high CD24 low-CSC-like subpopulation (CSC formation) by FACS ([1]; MCF-IM model, listed as NCD38): inhibits CD44 high CD24 low-CSC-like subpopulation | mammosphere formation [2]: inhibition CSC formation | mammosphere formation ([2]; listed as NCD38): reduce mammosphere formation | CD44 high CD24 low-CSC-like subpopulation (CSC formation) by FACS (MDA-MB 231 cells [3]): decrease of CSC formation | CD44 high CD24 low-CSC-like subpopulation (CSC formation) by FACS (MDA-MB 231 cells [3]; listed as NCD38): inhibits CD44 high CD24 low-CSC-like subpopulation | EMT / conversion of mesenchymal cells to epithelial cells (MET), phase contrast morphology (MDA-MB 231 cells [4]): conversion of mesenchymal cells in to epithelial cells | EMT / conversion of mesenchymal cells to epithelial cells (MET), phase contrast morphology (MDA-MB 231 cells [4]; listed as NCD38): inhibit EMT

CCCCCCCCCCCCCC(=O)O[C@@H]1[C@@H](C)[C@@]2(O)[C@@H](C=C(CO)C[C@]3(O)C(=O)C(C)=C[C@@H]23)[C@@H]2C(C)(C)[C@]12OC(C)=O [PMA, Phorbol 12-Myristate 13-Acetate]
generation of CD44high/CD24low CSC-like cells by FACS ([1]; MCF-7 cells stimulated with PMA 0.65 ng/mL for 60 hr): generation of CD44^high/CD24^low-CSC like cells | EMT (percentage of the cells undergoing EMT, morphological changes) (MCF-7 cells): results in maximal EMT; also recorded: caused highest EMT changes
